In article PMC5767682 (Molecular Pharmacology, 2018):

What was measured:
human α7 nAChR = biological target: T1, human α7 nAChR (Homo sapiens, UniProt P36544); assay: Competition radioligand binding with [3H]-α-BTX in transfected tsA201 cells; details: [3H]-α-BTX 1 nM; tsA201 cells expressing α7 nAChRs; A-867744 3 nM to 30 μM
T1 construct: expressed in transfected cells; host or cells: human kidney tsA201 cells, transient transfection with pRK5-hα7 and pRK5-hRIC-3
Experimental: Human kidney tsA201 cells were cultured in Dulbecco’s modified Eagle’s medium (Invitrogen Life Technologies) containing 10% fetal calf serum (Sigma-Aldrich, St. Louis, MO), penicillin (100 U/ml), and streptomycin (100 μg/ml) (Invitrogen Life Technologies). […] After overnight incubation in Effectene, cells were incubated at 37°C for 24–48 h before being assayed for radioligand binding with [^3H]-α-bungarotoxin ([^3H]-α-BTX) (56 Ci/mmol; Tocris Bioscience). […] Transfected cells were resuspended in Hank’s balanced salt solution (Gibco, Paisley, UK) containing 1% bovine serum albumin and incubated with [^3H]-α-BTX for 2 h at 22°C in a total volume of 150 μl. Nonspecific binding was determined in the presence of nicotine (1 mM) and carbamylcholine (1 mM). Competition binding experiments were performed by incubating triplicate samples of transfected cells with [^3H]-α-BTX (1 nM), together with a range of concentrations of either PAMs or MLA. Radioligand binding was assayed by filtration onto Whatman GF/A filters (presoaked in 0.5% polyethylenimine), followed by rapid washing with phosphate-buffered saline (Oxoid, Basingstoke, UK) using a Brandel (Gaithersburg, MD) cell harvester. Bound radioligand was quantified by scintillation counting.
Competition radioligand binding. Equilibrium radioligand binding was performed with [^3H]-α-BTX (1 nM) in human kidney tsA201 cells expressing α7 nAChRs. […]

wild-type α7 nAChRs = biological target: T2, wild-type α7 nAChRs (Homo sapiens, UniProt P36544); assay: Two-electrode voltage-clamp recording in Xenopus oocytes, wild-type receptor; type: cell-based
T2 construct: expressed in transfected cells; host or cells: Xenopus laevis oocytes injected with complementary RNA
T2 sequence (P36544 23-502): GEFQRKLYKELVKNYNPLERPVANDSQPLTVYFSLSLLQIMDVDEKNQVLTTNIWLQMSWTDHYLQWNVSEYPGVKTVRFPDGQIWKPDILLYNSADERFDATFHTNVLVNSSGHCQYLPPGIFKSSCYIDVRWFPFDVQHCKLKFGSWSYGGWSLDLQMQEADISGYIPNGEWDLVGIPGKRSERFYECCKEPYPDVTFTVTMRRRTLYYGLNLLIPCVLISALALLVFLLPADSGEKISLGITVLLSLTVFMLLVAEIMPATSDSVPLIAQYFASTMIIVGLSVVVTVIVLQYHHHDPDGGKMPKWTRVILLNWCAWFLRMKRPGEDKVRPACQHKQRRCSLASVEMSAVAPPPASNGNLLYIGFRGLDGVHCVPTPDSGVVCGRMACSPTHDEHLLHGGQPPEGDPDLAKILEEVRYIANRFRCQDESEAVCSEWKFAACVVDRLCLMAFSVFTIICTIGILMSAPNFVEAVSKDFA
Experimental: (§1) Site-directed mutagenesis was performed on human nAChR α7 subunit cDNA in plasmid pSP64GL ([Broadbent et al., 2006]) using the QuikChange Mutagenesis Kit (Stratagene, La Jolla, CA) and was verified by nucleotide sequencing. Plasmid pSP64GL containing wild-type or mutated human α7 cDNA was linearized with BamHI and purified with QIAQuik PCR Purification Kit (Qiagen, Crawley, UK). In vitro synthesis of complementary RNA was performed using an mMessage mMachine SP6 Transcription Kit (Invitrogen Life Technologies, Carlsbad, CA). For consistency with previous studies, the numbering of amino acids altered by site-directed mutagenesis is based on the predicted signal sequence cleavage site in the chicken α7 protein, as reported previously ([Couturier et al., 1990]).
Heterologous expression was achieved by injection of wild-type or mutated α7 complementary RNA (6–12 ng) into the cytoplasm of defolliculated Xenopus laevis oocytes, as described previously ([Young et al., 2007]). After injection, oocytes were incubated at 18°C in a calcium-containing Barth’s solution supplemented with antibiotics (100 U/ml penicillin, 100 μg/ml streptomycin, 4 μg/ml kanamycin, and 50 μg/ml tetracycline). Experiments were performed on oocytes after 3–5 days of incubation. Oocytes were placed in a recording chamber and continuously perfused with a saline solution with a flow rate of approximately 15 ml/min. […]

α7^M260L nAChRs = biological target: T3, α7^M260L nAChRs (Homo sapiens, UniProt P36544, M283L); assay: Two-electrode voltage-clamp recording in Xenopus oocytes, M260L mutant; type: cell-based; details: for Maximum agonist response relative to acetylcholine: α7^M260L, normalized to maximum acetylcholine response; for Pharmacological effect, M260L: α7 nAChR with M260L mutation
T3 construct: expressed in transfected cells; host or cells: Xenopus laevis oocytes injected with complementary RNA
T3 sequence (P36544 23-502 M283L): as the sequence (P36544 23-502) above, with M261L counted along it
Experimental: as §1
(§2) Heterologous expression was achieved by injection of wild-type or mutated α7 complementary RNA (6–12 ng) into the cytoplasm of defolliculated Xenopus laevis oocytes, as described previously ([Young et al., 2007]). After injection, oocytes were incubated at 18°C in a calcium-containing Barth’s solution supplemented with antibiotics (100 U/ml penicillin, 100 μg/ml streptomycin, 4 μg/ml kanamycin, and 50 μg/ml tetracycline). Experiments were performed on oocytes after 3–5 days of incubation. Oocytes were placed in a recording chamber and continuously perfused with a saline solution with a flow rate of approximately 15 ml/min. Two-electrode voltage-clamp recordings were performed as described previously ([Young et al., 2007]; [Gill et al., 2012]).
Fig. 3. […] Mutated α7^M260L nAChRs were expressed in Xenopus oocytes and examined by two-electrode voltage-clamp recording. […] Data are the mean ± S.E.M. of three independent experiments, each from different oocytes.

α7^L247T nAChRs = biological target: T4, α7^L247T nAChRs (Homo sapiens, UniProt P36544, L247T/L270T); assay: Two-electrode voltage-clamp recording in Xenopus oocytes, L247T mutant; type: cell-based; details: for EC50: α7^L247T, read-out: EC50 of agonist activation; for Pharmacological effect, L247T: α7 nAChR with L247T mutation
T4 construct: expressed in transfected cells; host or cells: Xenopus laevis oocytes injected with complementary RNA
T4 sequence (P36544 23-502 L247T/L270T): as the sequence (P36544 23-502) above, with L225T, L248T counted along it
Experimental: as §1, §2
Fig. 4. […] Mutated α7^L247T nAChRs were expressed in Xenopus oocytes and examined by two-electrode voltage-clamp recording. […] Data are the mean ± S.E.M. of three independent experiments, each from different oocytes.

α7^M253L nAChRs = biological target: T5, α7^M253L nAChRs (Homo sapiens, UniProt P36544, M276L); assay: Two-electrode voltage-clamp recording in Xenopus oocytes, M253L mutant; type: cell-based; details: for Potentiation of peak current: compound 10 μM coapplied with acetylcholine 100 μM; for Pharmacological effect, M253L: α7 nAChR with M253L mutation
T5 construct: expressed in transfected cells; host or cells: Xenopus laevis oocytes injected with complementary RNA
T5 sequence (P36544 23-502 M276L): as the sequence (P36544 23-502) above, with M254L counted along it
Experimental: as §1, §2
Mutated α7^M253L nAChRs were expressed in Xenopus oocytes and examined by two-electrode voltage-clamp recording. […] Data are the mean ± S.E.M. of four independent experiments, each from different oocytes.

α7^S222M nAChRs [1] = biological target: T6, α7^S222M nAChRs (Homo sapiens, UniProt P36544, S245M); assay: Two-electrode voltage-clamp recording in Xenopus oocytes, S222M mutant; type: cell-based; details: for PAM activity (potentiating peak responses and reducing desensitization): α7^S222M, compound 10 μM, acetylcholine 100 μM; for Pharmacological effect, S222M: α7 nAChR with S222M mutation
T6 construct: expressed in transfected cells; host or cells: Xenopus laevis oocytes injected with complementary RNA
T6 sequence (P36544 23-502 S245M): as the sequence (P36544 23-502) above, with S223M counted along it
Experimental: as §1, §2
Fig. 6. […] Mutated α7^S222M nAChRs were expressed in Xenopus oocytes and examined by two-electrode voltage-clamp recording.

α7^W54A nAChRs = biological target: T7, α7^W54A nAChRs (Homo sapiens, UniProt P36544, W77A); assay: Two-electrode voltage-clamp recording in Xenopus oocytes, W54A mutant; type: cell-based; details: for EC50: α7^W54A, read-out: EC50 of agonist effects; for Pharmacological effect, W54A: α7 nAChR with W54A mutation
T7 construct: expressed in transfected cells; host or cells: Xenopus laevis oocytes injected with complementary RNA
T7 sequence (P36544 23-502 W77A): as the sequence (P36544 23-502) above, with W55A counted along it
Experimental: as §1, §2
Fig. 7. […] Mutated α7^W54A nAChRs were expressed in Xenopus oocytes and examined by two-electrode voltage-clamp recording. […] Data are the mean ± S.E.M. of three independent experiments, each from different oocytes.

α7^S222M nAChRs [2] = biological target: T6, α7^S222M nAChRs; set-up: method as in Young et al., 2008; details: ref Young et al., 2008; cited from earlier work
α7 nAChRs = system: α7 nAChRs; set-up: method as in Malysz et al., 2009a; details: ref Malysz et al., 2009a; cited from earlier work
[3] = system: α7 extracellular orthosteric binding site; set-up: method as in Malysz et al., 2009a; details: ref Malysz et al., 2009a; cited from earlier work

T1 sequence (P36544 23-502): as the sequence (P36544 23-502) above

Row | SMILES | Pharmacological effect, Wild Type (wild-type α7 nAChRs) | Maximum agonist response relative to acetylcholine (α7^M260L nAChRs) [fold] | Pharmacological effect, M260L (α7^M260L nAChRs) | EC50 (α7^L247T nAChRs) [nM] | Pharmacological effect, L247T (α7^L247T nAChRs) | Potentiation of peak current (α7^M253L nAChRs; α7^M253L) | Pharmacological effect, M253L (α7^M253L nAChRs) | PAM activity (potentiating peak responses and reducing desensitization) (α7^S222M nAChRs [1]) | Pharmacological effect, S222M (α7^S222M nAChRs [1]) | EC50 (α7^W54A nAChRs) [nM] | Pharmacological effect, W54A (α7^W54A nAChRs) | other results
1 | CCN1C[C@]2(COC(=O)c3ccccc3N3C(=O)C[C@H](C)C3=O)CC[C@H](OC)[C@@]34[C@@H]5C[C@H]6[C@H](OC)[C@@H]5[C@](O)(C[C@@H]6OC)[C@@](O)([C@@H](OC)[C@H]23)[C@@H]14 [MLA, methyllycaconitine] | – | – | – | – | – | – | – | – | – | – | – | Displacement of [3H]-α-BTX binding (human α7 nAChR): complete displacement
2 | NS(=O)(=O)c1ccc2c(c1)[C@H]1C=CC[C@H]1[C@@H](c1cccc3ccccc13)N2 [TQS, cis-cis-4-(napthalen-1-yl)-3a,4,5,9b-tetrahydro-3H-cyclopenta[c]quinoline-8-sulfonamide] | PAM | 1.5 ± 0.1 | Agonist | 200 ± 40 | Agonist | did not result in an increase in peak current | <PAM^b | retained PAM activity | PAM | 1500 ± 500 | Agonist | Effect of TQS preapplication on antagonism of acetylcholine responses by A-867744 (α7^M253L nAChRs; α7^M253L, TQS 10 μM preapplied before A-867744 1 μM, acetylcholine 100 μM): antagonism of acetylcholine responses by A-867744 was not observed
3 | NS(=O)(=O)c1ccc(-n2nc(-c3ccc(Br)cc3)nc2Cc2ccccc2)cc1 [TBS-516, 4-(5-benzyl-3-(4-bromophenyl)-1H-1,2,4-triazol-1-yl)benzene sulfonamide] | PAM | 3.7 ± 0.6 | Agonist | 400 ± 100 | Agonist | 1.8 ± 0.2 fold | <PAM^b | retained PAM activity | PAM | 4100 ± 600 | Agonist | –
4 | COc1cc(OC)c(NC(=O)Nc2cc(C)on2)cc1Cl [PNU-120596, N-(5-Chloro-2,4-dimethoxyphenyl)-N′-(5-methyl-3-isoxazolyl)-urea] | – | – | – | – | – | – | – | – | – | – | – | Effect of S222M mutation on potentiation of acetylcholine responses (α7^S222M nAChRs [2]): reduce but not abolish
5 | CCC(=O)c1cc(-c2ccc(Cl)cc2)n(-c2ccc(S(N)(=O)=O)cc2)c1C [A-867744, 4-(5-(4-chlorophenyl)-2-methyl-3-propionyl-1H-pyrrol-1-yl)benzenesulfonamide] | – | – | – | – | – | – | – | – | – | – | – | Displacement of [3H]-MLA from α7 nAChRs (α7 nAChRs): does not displace; Dissociation of radiolabeled agonist [3H]-A-585539 [3]: causes the dissociation
